The text below walks through data of ChEMBL document CHEMBL1201862, “PubChem BioAssay data set” (2004).

Some targets named below: Cytochrome P450 2C9 (Homo sapiens, UniProt P11712); Cytochrome P450 3A4 (Homo sapiens, UniProt P08684); Cytochrome P450 2D6 (Homo sapiens, UniProt P10635).
Experiment [1] in a line: Luminescence Cell-Based Dose Confirmation HTS to Identify Inhibitors of Platelet Dense Granule Release. [Related pubchem assays: 1663 (Primary HTS), 1678 (Summary of Project)]. Format: functional.
Experiment [2] concerns the target Luciferin 4-monooxygenase (Photinus pyralis, UniProt P08659). Put plainly: inhibition of purified Photinus pyralis luciferase – biochemical, luminescence, dose response (AID 1891).
In experiment [3] the target is T1, Short transient receptor potential channel 4 (Mus musculus, UniProt Q9QUQ5).
T1 sequence (Q9QUQ5 whole entry): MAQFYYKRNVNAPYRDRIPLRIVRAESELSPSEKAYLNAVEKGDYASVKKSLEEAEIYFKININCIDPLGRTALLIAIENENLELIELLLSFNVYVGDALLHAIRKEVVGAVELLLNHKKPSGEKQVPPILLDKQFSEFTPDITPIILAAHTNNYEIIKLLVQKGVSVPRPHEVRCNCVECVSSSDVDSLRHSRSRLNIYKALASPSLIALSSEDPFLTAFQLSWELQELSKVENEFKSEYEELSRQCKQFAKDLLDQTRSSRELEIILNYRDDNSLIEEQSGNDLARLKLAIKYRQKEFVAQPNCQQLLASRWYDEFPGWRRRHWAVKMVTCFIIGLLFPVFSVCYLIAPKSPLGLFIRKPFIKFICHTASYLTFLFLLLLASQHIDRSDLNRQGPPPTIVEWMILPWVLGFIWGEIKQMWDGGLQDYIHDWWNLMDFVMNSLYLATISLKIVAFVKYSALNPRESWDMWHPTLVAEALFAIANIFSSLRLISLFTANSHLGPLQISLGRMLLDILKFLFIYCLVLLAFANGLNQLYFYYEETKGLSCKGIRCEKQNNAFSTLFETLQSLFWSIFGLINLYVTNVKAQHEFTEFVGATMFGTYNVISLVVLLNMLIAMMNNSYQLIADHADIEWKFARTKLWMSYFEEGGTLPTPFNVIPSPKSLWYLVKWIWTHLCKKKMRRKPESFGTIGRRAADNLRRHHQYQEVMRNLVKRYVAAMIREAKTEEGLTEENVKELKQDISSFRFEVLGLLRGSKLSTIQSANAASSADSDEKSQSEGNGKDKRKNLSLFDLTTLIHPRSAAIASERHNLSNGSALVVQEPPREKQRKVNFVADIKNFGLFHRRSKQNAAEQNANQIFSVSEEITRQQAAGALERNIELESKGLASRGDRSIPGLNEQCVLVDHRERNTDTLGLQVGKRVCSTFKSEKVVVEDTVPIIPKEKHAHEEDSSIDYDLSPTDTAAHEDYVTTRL
The experiment is described as follows: block of DAMGO-driven TRPC4 calcium entry – cell-based, HEK293 TRPC4/mu-opioid, Fluo-4 calcium, dose response (AID 434942).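 Also: potency of inhibitors blocking the TRPC4 calcium response.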 Format: functional.

The nature of experiment [4]: microbe, parasite or virus in culture. Format: functional. The settings on record: Mycobacterium tuberculosis.
A further experiment relates to H9c2. The experiment is described as follows: cells. Format: functional, cell-based. The settings on record: Rattus norvegicus, H9c2, Myocardium.
Experiment [5] can be described thus: fluconazole-exposed Candida albicans growth modulators – fluorescence, retest, confirmation (AID 2467). Format: functional, cell-based.
Experiment [6] in a line: NIH-3T3 fibroblast cytotoxicity, dose response, cytotoxicity control, cell-based, fluorescence, Alamar Blue, secondary assay (AID 2327).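 Also: NIH-3T3 mouse fibroblasts cultured with fluconazole at 8 µg/mL.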 Format: functional. (Resazurin is reduced to fluorescent resorufin, in cell work by metabolically active cells.)
Experiment [7] can be described thus: viability of uninfected HEp-2 cells – cell-based, HTS, cytotoxicity control for RSV inhibitor project, dose response (AID 2410). Format: functional. The note with it: human respiratory syncytial virus.
Experiment [8] has as its target T2, RNA-binding protein pos-1 (Caenorhabditis elegans, UniProt G5EF15).
T2 sequence (G5EF15 whole entry): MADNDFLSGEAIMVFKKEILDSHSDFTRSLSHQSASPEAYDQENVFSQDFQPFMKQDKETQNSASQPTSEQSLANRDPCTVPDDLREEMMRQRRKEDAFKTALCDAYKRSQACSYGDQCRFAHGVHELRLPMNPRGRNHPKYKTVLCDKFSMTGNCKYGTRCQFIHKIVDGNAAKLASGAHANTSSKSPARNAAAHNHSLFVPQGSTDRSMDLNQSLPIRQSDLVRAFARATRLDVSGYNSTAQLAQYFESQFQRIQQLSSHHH
Put plainly: disruptors of C. elegans POS-1 RNA interaction – biochemical, fluorescence polarization, dose response (AID 1964).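 Also: purified POS-1 fused to maltose binding protein made in E. coli; potency of compounds blocking POS-1 binding to fluorescent RNA.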

The target of experiment [9] is T3, Zinc finger protein mex-5 (Caenorhabditis elegans, UniProt Q9XUB2).
T3 sequence (Q9XUB2 whole entry): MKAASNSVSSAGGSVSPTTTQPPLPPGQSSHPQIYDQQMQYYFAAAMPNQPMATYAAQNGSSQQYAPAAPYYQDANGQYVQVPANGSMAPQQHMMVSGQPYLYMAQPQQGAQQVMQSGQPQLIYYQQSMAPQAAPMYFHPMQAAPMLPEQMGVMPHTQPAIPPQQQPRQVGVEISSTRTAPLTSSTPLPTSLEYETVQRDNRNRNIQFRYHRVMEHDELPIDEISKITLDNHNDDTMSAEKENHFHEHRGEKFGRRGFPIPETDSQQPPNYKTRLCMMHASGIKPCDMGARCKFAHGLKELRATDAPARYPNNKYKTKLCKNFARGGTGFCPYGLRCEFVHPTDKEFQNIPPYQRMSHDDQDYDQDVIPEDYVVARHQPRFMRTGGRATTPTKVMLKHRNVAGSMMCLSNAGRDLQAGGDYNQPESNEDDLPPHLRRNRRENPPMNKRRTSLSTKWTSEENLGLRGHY
The experiment is described as follows: potency of MEX-5 RNA-binding blockers – biochemical, C. elegans, fluorescence polarization, dose response (AID 1960). (In general: In fluorescence polarisation assays a small probe gives low polarisation when free and higher when bound to something large.)

The source made the active and inactive calls.
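For IC50 in this document: confirmatory concentration-response retest of ultra-high-throughput screening hits for modulation of myocardial damage; cell death induced by hydrogen peroxide oxidative stress; compound pretreatment for 60 min then peroxide exposure for 2 h; potency is for protecting the cells against peroxide damage rather than for killing them.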

Cytochrome P450 3A4, sequence (P08684 whole entry): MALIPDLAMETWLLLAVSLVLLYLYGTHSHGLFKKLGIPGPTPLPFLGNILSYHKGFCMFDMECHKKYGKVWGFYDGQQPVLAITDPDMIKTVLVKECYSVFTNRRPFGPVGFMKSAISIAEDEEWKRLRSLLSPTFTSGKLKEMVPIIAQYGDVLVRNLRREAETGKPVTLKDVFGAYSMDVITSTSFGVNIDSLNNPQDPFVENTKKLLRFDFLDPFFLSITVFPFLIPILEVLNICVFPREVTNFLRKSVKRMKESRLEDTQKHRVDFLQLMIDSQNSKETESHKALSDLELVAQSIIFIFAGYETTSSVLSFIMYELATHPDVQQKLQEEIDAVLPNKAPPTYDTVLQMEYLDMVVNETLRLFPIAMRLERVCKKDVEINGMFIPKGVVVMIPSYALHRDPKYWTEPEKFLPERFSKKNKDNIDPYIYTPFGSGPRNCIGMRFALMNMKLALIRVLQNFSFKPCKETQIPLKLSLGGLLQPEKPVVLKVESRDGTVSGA
Luciferin 4-monooxygenase, sequence (P08659 whole entry): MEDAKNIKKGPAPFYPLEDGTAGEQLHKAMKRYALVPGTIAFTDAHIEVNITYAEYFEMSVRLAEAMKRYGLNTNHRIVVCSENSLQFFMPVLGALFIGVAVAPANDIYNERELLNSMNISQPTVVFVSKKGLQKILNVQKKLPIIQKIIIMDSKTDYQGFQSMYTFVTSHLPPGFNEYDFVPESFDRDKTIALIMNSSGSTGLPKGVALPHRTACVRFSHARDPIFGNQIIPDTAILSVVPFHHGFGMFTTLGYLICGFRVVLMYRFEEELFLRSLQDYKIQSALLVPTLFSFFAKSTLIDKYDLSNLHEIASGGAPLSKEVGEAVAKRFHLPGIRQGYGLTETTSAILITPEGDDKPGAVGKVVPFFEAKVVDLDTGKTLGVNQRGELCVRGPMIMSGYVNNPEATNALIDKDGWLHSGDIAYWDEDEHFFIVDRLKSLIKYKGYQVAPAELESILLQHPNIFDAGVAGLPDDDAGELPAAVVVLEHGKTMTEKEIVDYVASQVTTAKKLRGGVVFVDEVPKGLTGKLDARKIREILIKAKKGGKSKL
Cytochrome P450 2C9, sequence (P11712 whole entry): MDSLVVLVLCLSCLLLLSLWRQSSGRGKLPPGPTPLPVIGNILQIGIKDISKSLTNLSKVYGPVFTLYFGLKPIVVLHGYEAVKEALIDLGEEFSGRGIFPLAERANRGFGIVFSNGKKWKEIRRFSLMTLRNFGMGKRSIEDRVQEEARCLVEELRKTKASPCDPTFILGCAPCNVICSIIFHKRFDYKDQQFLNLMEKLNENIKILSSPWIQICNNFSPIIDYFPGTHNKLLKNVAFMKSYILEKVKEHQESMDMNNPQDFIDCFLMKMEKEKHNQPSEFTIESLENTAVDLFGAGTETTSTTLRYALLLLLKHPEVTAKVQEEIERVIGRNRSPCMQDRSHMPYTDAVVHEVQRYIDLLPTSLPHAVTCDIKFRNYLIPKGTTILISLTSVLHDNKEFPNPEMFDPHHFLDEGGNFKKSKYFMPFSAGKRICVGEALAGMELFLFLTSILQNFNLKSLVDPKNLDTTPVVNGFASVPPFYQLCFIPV
Cytochrome P450 2D6, sequence (P10635 whole entry): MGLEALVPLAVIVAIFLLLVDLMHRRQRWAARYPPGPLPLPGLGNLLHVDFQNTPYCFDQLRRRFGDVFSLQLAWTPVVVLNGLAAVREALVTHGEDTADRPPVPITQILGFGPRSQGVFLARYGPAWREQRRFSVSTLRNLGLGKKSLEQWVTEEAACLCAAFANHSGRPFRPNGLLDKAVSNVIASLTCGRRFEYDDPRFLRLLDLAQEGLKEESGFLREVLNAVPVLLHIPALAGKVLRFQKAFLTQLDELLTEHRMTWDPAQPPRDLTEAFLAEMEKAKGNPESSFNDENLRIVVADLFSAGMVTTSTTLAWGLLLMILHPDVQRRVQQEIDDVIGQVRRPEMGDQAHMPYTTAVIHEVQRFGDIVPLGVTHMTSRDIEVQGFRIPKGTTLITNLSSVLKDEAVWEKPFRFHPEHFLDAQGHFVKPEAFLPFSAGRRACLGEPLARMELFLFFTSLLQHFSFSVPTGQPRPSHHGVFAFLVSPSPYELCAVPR

As usually defined, the AC50 is the concentration at which the activity in the assay is half-maximal. For the compound `CCNc1ncc2nc(-c3cccs3)c(=O)n(C)c2n1`, the AC50 at Cytochrome P450 2C9 is 10 µM (inconclusive); at Cytochrome P450 3A4, 12.6 µM (inconclusive).

As for `COc1cccc(Cn2c(=O)c(-c3cn(C)c4ccccc34)nc3cncnc32)c1`, the AC50 at Cytochrome P450 2C9 is 0.794 µM (inconclusive); at Cytochrome P450 3A4, 10 µM (inconclusive).

As usually defined, the EC50 is the concentration giving half of the maximal effect. As to `Cn1c(CN2CCCC2)nc2cc(NC(=O)COc3ccccc3)ccc21`, the EC50 in [1] and in experiment [2] was > 112 µM (not active) in each case.

As to `CN(C)c1ccc(-c2nc(O)c3ccccc3n2)cc1`, the EC50 is 33.4 µM (active) in [1] and 8.02 µM (active) in experiment [2].

For the compound `CCOC(=O)C1CCN(CC(O)COc2ccc(C(C)(C)C)cc2)CC1` (configuration not stated), the EC50 in [3] is 1.88 µM (active).

For the compound `CC(C)(C)N1C(=O)NC(=O)/C(=C/Nc2ccc3c(c2)CCC3)C1=O`, in [4], the CC50 is > 40 µM (active).

As to `Cc1cc(Cl)ccc1NNC(=O)CCc1ccccc1`, in [4], the CC50 is > 40 µM (active).

Take `Cn1c2[n+](c3ccc(Cl)cc3c1=O)Cc1ccccc1-2`: the EC50 in experiment [1] and in [2] was > 112 µM (not active) throughout.

As usually defined, the IC50 is the concentration that inhibits the measured activity by half. With `COc1ccc(C(C(=O)NC2CCCC2)N(C(=O)c2snc(C(N)=O)c2N)c2cccc(O)c2)cc1` (configuration not stated), the IC50 in the experiment on H9c2 was > 79 µM (inactive).

Regarding `CC(=O)Nc1cccc(C(=O)NCC2(N3CCCCC3)CCCCC2)c1`, in [3], the EC50 was 2.66 µM (active).

Take `Cn1cc(CN2CCCCC2CO)c(-c2ccc(Oc3ccccc3)cc2)n1` (configuration not stated): the EC50 in experiment [3] was 7.5 µM (active).

On to `Cc1cc(/C=C2\SC(Nc3ccc(F)cc3)=NC2=O)c(C)n1-c1ccc(S(N)(=O)=O)cc1`, for which the CC50 in experiment [4] is 12 µM (active).

With `COc1ccc(OC)c(NC(=O)CSc2nc(N)c(-c3ccccc3)c(O)n2)c1`, the concentration for a half-maximal effect (EC50) in experiment [1] and in experiment [2] was > 112 µM (not active) each time.

As for `Cc1ccc(C(=O)c2oc3nc(C)cc(C)c3c2N)cc1`, the EC50 in experiment [5] is > 38 µM (not active); in [6] it was > 160 µM (inactive). In addition, the results for the AC50 on Cytochrome P450 3A4 and at Cytochrome P450 2D6 were 0.891 µM (inconclusive) and 10 µM (inconclusive), respectively.

Turning to `CN(CC(=O)Nc1c(Cl)cccc1Cl)C(=O)Cn1[nH]c(=O)c2ccccc2c1=O`, in the experiment on H9c2, the IC50 is > 79 µM (inactive).

With `CCOc1cc2[nH]c(=S)n(CCC(=O)NCc3ccco3)c(=O)c2cc1OCC`, the EC50 in [1] and in experiment [2] was > 112 µM (not active) in each case.

Take `C[C@@H]1OC2C3=C(C(=O)[C@H]4O[C@@H]4[C@H]3O)[C@@H]1[C@H]1[C@H](C)OC=C3[C@H](O)[C@H]4O[C@H]4/C(=N\OCc4ccccc4)[C@@]321`: the AC50 on Cytochrome P450 3A4 was 3.98 µM (inconclusive).

As to `Cc1c(C2Nc3ccccc3C(=O)N2O)cnn1C` (configuration not stated), the IC50 with H9c2 was > 79 µM (inactive).

As for `COc1ccccc1C(=O)Nc1ccc2c(c1)CCCN2C(=O)c1cccs1`, the EC50 in experiment [3] is 3.35 µM (active). Besides, the CC50 in [7] is 21.5 µM (active).

Regarding `COc1cc(OC)c(C2C(C#N)=C(N)OC3=C2C(=O)CC(C)C3)cc1OC` (configuration not stated), the EC50 in experiment [8] and in [9] was > 300 µM (not active) throughout.

`CCOc1cc(/C=C2\C(=O)N(Cc3ccc(C)cc3)C(C)=C2C(=O)OC)ccc1O`: the AC50 on Cytochrome P450 3A4 is 1 µM (inconclusive).

For the compound `CN(C)c1ccc([N+](=O)[O-])cc1C(=O)NCC(c1ccco1)N(C)C` (configuration not stated), the EC50 in experiment [3] is 0.299 µM (active).

For `O=C(O)c1ccccc1-n1c2ccccc2c2ccccc21`, the EC50 in experiment [8] and in [9] was > 300 µM (not active) in each case.

In the case of `CCOc1cc(NC(=O)CCl)c(OCC)cc1NC(C)=O`, the CC50 in [4] is 25.5 µM (active).

With `COc1ccc(COc2cc(-c3cccc(OC)c3)nc3ccc(NC(=O)c4ccc(OC)cc4)cc23)cc1`, the CC50 in experiment [4] is 15.8 µM (active). Besides, the IC50 in the experiment with H9c2 was > 79 µM (inactive).

Take `Cc1ccc(C(=O)O)cc1-n1c(C)cc(C=O)c1C`: the concentration giving a half-maximal response (EC50) in [8] and in experiment [9] was > 300 µM (not active) each time.

With `Cc1n[nH]c(C)c1CCCCOc1ccccc1F`, the EC50 in experiment [3] is 3.76 µM (active).

For `CN1CCCCc2c1nc1ccccc1c2N.O=C(O)c1cncc(Br)c1`, the EC50 in experiment [3] was 0.668 µM (active).

On to `Cc1ccc2nc(O)c3cc(C(=O)N(C)c4ccc(C)c(C)c4)sc3c2c1`, for which the EC50 in experiment [1] and in experiment [2] was > 112 µM (not active) each time.

Regarding `Cc1ccc(SCCNC(=O)c2ccccc2)cc1`, on Cytochrome P450 3A4, the AC50 is 12.6 µM (inconclusive).

Consider `Cc1cc2ccccc2nc1SCC(=O)N1c2ccccc2CC1C` (configuration not stated), for which the values for the EC50 in experiment [1] and in [2] were 11.9 µM (active) and > 112 µM (not active), respectively.

Regarding `C=CC[C@@H](CC(=O)N[C@H](CO)Cc1ccccc1)C(=O)N[C@@H](COC(=O)[C@@H](CC=C)CC(=O)OC(C)(C)C)Cc1ccccc1`, the concentration for half-maximal inhibition (IC50) in the experiment on H9c2 was 12.1 µM (active).

As for `NC(=O)c1nsc(C(=O)N(Cc2ccco2)C(C(=O)NCc2ccc(F)cc2)c2ccc(O)cc2)c1N` (configuration not stated), the EC50 in experiment [3] is 0.105 µM (active).

On to `O=C(CCc1nc(O)c2ccccc2n1)N1CCN(S(=O)(=O)c2cc(Cl)ccc2Cl)CC1`, for which, in the experiment with H9c2, the IC50 was > 79 µM (inactive).

`Cc1ccc(NC(=O)c2[nH]cnc2C(=O)NCCCCCNC(=O)OC(C)(C)C)cc1`: in the experiment on H9c2, the IC50 is > 79 µM (inactive).

Consider `CCOC(=O)c1[nH]c2cc(OC)c(OC)cc2c1NC(=O)c1nonc1C`, for which the AC50 on Cytochrome P450 3A4 is 2.82 µM (inconclusive).

Regarding `O=C1N[C@H](Cc2c[nH]c3ccccc23)COC(=O)[C@H](Cc2ccc(F)cc2)C/C=C\C[C@H]1CC(=O)N(CCO)Cc1ccccc1`, in the experiment on H9c2, the IC50 is > 79 µM (inactive).

Take `C[C@@H](OC(=O)c1[nH]cnc1C(=O)NCc1ccc(CNC(=O)OC(C)(C)C)cc1)c1ccccc1`: in the experiment on H9c2, the IC50 was > 79 µM (inactive).

With `COc1cc(C(=O)N/N=C/c2sc(N3CCOCC3)nc2-c2ccccc2)cc(OC)c1OC`, the concentration for half-maximal inhibition (IC50) in the experiment with H9c2 was 9.3 µM (active).

For the compound `Cc1nnc(SCC(=O)N/N=C/c2cn(-c3ccccc3)nc2-c2ccccc2)n1-c1ccccc1`, in the experiment on H9c2, the IC50 is > 79 µM (inactive).

In the case of `Cc1ccc(Oc2ccccc2/C=N/O)cc1`, the EC50 in experiment [3] is 9.44 µM (active).

Turning to `NC(=O)N/N=C1\c2ccccc2-c2c(C(N)=O)cccc21`, in experiment [3], the EC50 was 1.5 µM (active).

Take `CCOCCCn1/c(=N/C(=O)c2cccs2)c(C#N)cc2c(=O)n3cccc(C)c3nc21`: the EC50 in [8] was > 300 µM (not active); in [9], > 150 µM (not active).

On to `C/C(CC(=O)NCc1ccco1)=N\NC(=O)Cc1ccccc1`, for which the AC50 on Cytochrome P450 3A4 is 17.8 µM (inconclusive).
